# Test results as given in patent publication US12702644B2, “Pharmaceutical composition comprising ibuprofen and arginine” (priority 2021, dated 2026).
# Experiments:
# [1] = tested on: RAW 264.7 (murine macrophages); test: Superoxide anion generation (DHE fluorescence) in murine macrophages stimulated with LPS; type: cell-based; conditions: FIG. 3; LPS 25 μM/mL, 60 min; Ibu 10, 50, 100 μM alone; Arg 50 μM alone; PBS
# Experimental: The selected method measures the fluorescence of DHE generated from its interaction with superoxide anion (O2^−) to determine the inhibitory effect of the different formulations on the generation of O2^− in murine macrophages that have been stimulated with LPS. This method has been selected because, as Chen et al. [Chen, J., et al. (2013). Analysis of kinetics of dihydroethidium fluorescence with superoxide using xanthine oxidase and hypoxanthine assay. […]
# After this incubation, basal fluorescence was measured on a Fluoroskan Ascent plate reader, Labsystems using λex=485 nm and λem=538 nm. […] The fluorescence of the plate was then re-recorded using the same filter as in the basal condition.
# For the analysis of the results, the value corresponding to the basal fluorescence for each well was subtracted from each final time value. […]
# Murine macrophages were stimulated with LPS (25 μM/mL) and treated with arginine 50 μM alone or with different concentrations of alkaline hypertonic ibuprofen (10, 50, and 100 μM) in PBS saline solution. The cells were loaded with dihydroethidium (DHE) for 30 min at 37° C. and after 60 min of stimulation, normalized fluorescence was determined with the basal reading. […]
# [2] = tested on: patients with cystic fibrosis; conditions: CF patients, cited from earlier work
SMILES,inhibition of LPS-stimulated generation of superoxide anion [1],"FEV1 increase (average) ([2]; inhalation of 5 mL of 100 mg/mL twice daily, −8 ml after saline, difference not statistically significant) [mL]",exhaled NO ([2]; inhalation)
N=C(N)NCCC[C@H](N)C(=O)O [Arginine],not inhibited,–,–
CC(C)Cc1ccc(C(C)C(=O)O)cc1 (stereo not shown) [Ibuprofen],not inhibited,–,–
N=C(N)NCCC[C@H](N)C(=O)O [L-arginine],–,56,significant increase
